In PMC8802806, “Synthesis and Antitumor Activity of Erlotinib Derivatives Linked With 1,2,3-Triazole” (Frontiers in Pharmacology, 2022):
Where two headings read alike, the source gives them in different places.

Legend:
HeLa cells = assay: Cell antiproliferative activity assay (CCK8); type: cell-based, human; details: for inhibition at 0.25 µM: 250 nM; for inhibition at 0.5 µM: 500 nM; for inhibition at 1 µM: 1000 nM; for inhibition at 2 µM: 2000 nM; for inhibition at 4 µM: 4000 nM; for inhibition at 8 µM: 8000 nM; for inhibition at 16 µM: 16000 nM
Experimental: Cell antiproliferative activity was evaluated by the Cell Counting Kit-8 (CCK8, DOJINDO, Japan) assay. The cells were seeded at a density of 2,000 cells per well into 96-well microplate in 100 μl of growth medium. Cells were incubated at 37°C and 5% CO2 overnight. The next day, 100 μl per well of diluted inhibitor in growth medium was added with the final concentration from 0.1 nM to 100 μM. The cells were treated with DMSO as control. A series of dilutions are made in 0.1% DMSO in assay medium so that the final concentration of DMSO is 0.1% in all of treatments. Cells were incubated at 37°C and 5% CO2 for 48 h. Then, 10 μl of CCK8 was added to each well. The plates were incubated at 37°C for 2 h; after that, the plates were recorded by measuring absorbance at 450 nm with the reference wavelength of 630 nm using an EnVision Multilabel Reader (PerkinElmer). The IC50 values were calculated using GraphPad Prism 6.0 software and determined by the concentration causing a half-maximal percent activity. All assays were conducted with three parallel samples and three repetitions.

[1] = Homo sapiens, HeLa, 48 h, HeLa cells, CCK8, 48 h, mean ± SD, n = 3, read-out: IC50 (μM) HeLa
[2] = Homo sapiens, HELA 2000cells/well, Repeat1, read-out: Inhibition (%) Repeat1
[3] = Homo sapiens, HELA 2000cells/well, Repeat2, read-out: Inhibition (%) Repeat2
[4] = Homo sapiens, HeLa, HELA 2000cells/well, supplement DataSheet2, Repeat1, read-out: IC50 Repeat1
[5] = Homo sapiens, HeLa, HELA 2000cells/well, supplement DataSheet2, Repeat 2, read-out: IC50 Repeat 2
[6] = Homo sapiens, HeLa, HELA 2000cells/well, supplement DataSheet2, mean of two repeats ± SD, read-out: IC50 mean±SD

| IC50 (HeLa cells; [1]) [µM] | melting point [°C] | IC50 (HeLa cells; [4]) [µM] | IC50 (HeLa cells; [5]) [µM] | IC50 (HeLa cells; [6]) [µM] | SMILES | inhibition at 0.25 µM (HeLa cells; [2]) [%] | inhibition at 0.25 µM (HeLa cells; [3]) [%] | inhibition at 0.5 µM (HeLa cells; [2]) [%] | inhibition at 0.5 µM (HeLa cells; [3]) [%] | inhibition at 1 µM (HeLa cells; [2]) [%] | inhibition at 1 µM (HeLa cells; [3]) [%] | inhibition at 2 µM (HeLa cells; [2]) [%] | inhibition at 2 µM (HeLa cells; [3]) [%] | inhibition at 4 µM (HeLa cells; [2]) [%] | inhibition at 4 µM (HeLa cells; [3]) [%] | inhibition at 8 µM (HeLa cells; [2]) [%] | inhibition at 8 µM (HeLa cells; [3]) [%] | inhibition at 16 µM (HeLa cells; [2]) [%] | inhibition at 16 µM (HeLa cells; [3]) [%] | also measured |
| --- | --- | --- | --- | --- | --- | --- | --- | --- | --- | --- | --- | --- | --- | --- | --- | --- | --- | --- | --- | --- |
| 9.05 ± 0.53 | 88 to 91 | 8.57 | 9.64 | 9.06 ± 0.531 | COCCOc1cc2ncnc(Nc3cccc(-c4cn(-c5ccc(F)cc5)nn4)c3)c2cc1OCCOC [Compound 4g, [6,7-Bis-(2-methoxy-ethoxy)-quinazolin-4-yl]-{3-[1-(4-fluoro-phenyl)-1H-[1,2,3]triazol-4-yl]-phenyl}-amine] | 0 | 2.88 | 0.279 | 5.02 | 2.88 | 5.02 | 20.6 | 17.7 | 37.5 | 38.5 | 51.1 | 50.1 | 59.4 | 54.7 |  |
| 8.85 ± 0.56 | 131 to 134 | 8.32 | 9.44 | 8.86 ± 0.559 | COCCOc1cc2ncnc(Nc3cccc(-c4cn(-c5ccccc5Cl)nn4)c3)c2cc1OCCOC [Compound 4h, [6,7-Bis-(2-methoxy-ethoxy)-quinazolin-4-yl]-{3-[1-(2-chloro-phenyl)-1H-[1,2,3]triazol-4-yl]-phenyl}-amine] | 0 | 1.75 | 7.08 | 3.15 | 7.26 | 6.12 | 13.4 | 11.2 | 31.3 | 29.2 | 54.3 | 51.4 | 63.2 | 59.4 |  |
| 4.16 | 93 to 97 | 4.41 | 4.3 | 4.36 ± 0.054 | COCCOc1cc2ncnc(Nc3cccc(-c4cn(-c5ccccc5Br)nn4)c3)c2cc1OCCOC [Compound 4i, [6,7-Bis-(2-methoxy-ethoxy)-quinazolin-4-yl]-{3-[1-(2-bromo-phenyl)-1H-[1,2,3]triazol-4-yl]-phenyl}-amine] | 2.62 | 0 | 6.42 | 5.74 | 9.04 | 6.59 | 15.2 | 17.7 | 41.6 | 42.6 | 83.4 | 83.9 | 88.1 | 88.9 | IC50 (HeLa cells; HeLa cells, CCK8, 48 h, mean ± SD, n = 3, read-out: IC50 (μM) HeLa): 4.36 ± 0.15 µM |
| 12.2 ± 1 | 105 to 108 | 11.3 | 13.3 | 12.2 ± 1.01 | COCCOc1cc2ncnc(Nc3cccc(-c4cn(-c5ccc(Br)cc5)nn4)c3)c2cc1OCCOC [Compound 4j, [6,7-Bis-(2-methoxy-ethoxy)-quinazolin-4-yl]-{3-[1-(4-bromo-phenyl)-1H-[1,2,3]triazol-4-yl]-phenyl}-amine] | 0 | 2.88 | 0.0873 | 2.97 | 0.96 | 4.36 | 4.01 | 4.89 | 8.03 | 8.64 | 26.2 | 17.7 | 73.6 | 63.3 |  |

Further lines, the molecule ahead of its results:

| SMILES | IC50 (HeLa cells; [1]) [µM] | melting point [°C] | IC50 (HeLa cells; [4]) [µM] | IC50 (HeLa cells; [5]) [µM] | IC50 (HeLa cells; [6]) [µM] | inhibition at 0.25 µM (HeLa cells; [2]) [%] | inhibition at 0.25 µM (HeLa cells; [3]) [%] | inhibition at 0.5 µM (HeLa cells; [2]) [%] | inhibition at 0.5 µM (HeLa cells; [3]) [%] | inhibition at 1 µM (HeLa cells; [2]) [%] | inhibition at 1 µM (HeLa cells; [3]) [%] | inhibition at 2 µM (HeLa cells; [2]) [%] | inhibition at 2 µM (HeLa cells; [3]) [%] | inhibition at 4 µM (HeLa cells; [2]) [%] | inhibition at 4 µM (HeLa cells; [3]) [%] | inhibition at 8 µM (HeLa cells; [2]) [%] | inhibition at 8 µM (HeLa cells; [3]) [%] | inhibition at 16 µM (HeLa cells; [2]) [%] | inhibition at 16 µM (HeLa cells; [3]) [%] | also measured |
| --- | --- | --- | --- | --- | --- | --- | --- | --- | --- | --- | --- | --- | --- | --- | --- | --- | --- | --- | --- | --- |
| COCCOc1cc2ncnc(Nc3cccc(-c4cn(Cc5ccccc5)nn4)c3)c2cc1OCCOC [Compound 4a, [3-(1-Benzyl-1H-[1,2,3]triazol-4-yl)-phenyl]-[6,7-bis-(2-methoxy-ethoxy)-quinazolin-4-yl]-amine] | > 50 | 89 to 92 |  |  |  | 0 | 4.4 | 8.2 | 5.61 | 8.54 | 6.73 | 8.54 | 6.73 | 12.1 | 12.1 | 12.5 | 13.8 | 16.3 | 15.5 |  |
| COCCOc1cc2ncnc(Nc3cccc(-c4cn(Cc5ccccc5I)nn4)c3)c2cc1OCCOC [Compound 4b, [6,7-Bis-(2-methoxy-ethoxy)-quinazolin-4-yl]-{3-[1-(2-iodo-benzyl)-1H-[1,2,3]triazol-4-yl]-phenyl}-amine] | 11.5 ± 1.69 | 93 to 96 | 9.72 | 13.1 | 11.5 ± 1.69 | 8.56 | 0 | 12.5 | 0 | 13.3 | 3.42 | 17.6 | 7.96 | 37.8 | 28.2 | 52 | 40.8 | 54.8 | 51.1 |  |
| COCCOc1cc2ncnc(Nc3cccc(-c4cn(Cc5ccccc5Br)nn4)c3)c2cc1OCCOC [Compound 4c, [6,7-Bis-(2-methoxy-ethoxy)-quinazolin-4-yl]-{3-[1-(2-bromo-benzyl)-1H-[1,2,3]triazol-4-yl]-phenyl}-amine] | 21.3 ± 7.79 | 94 to 97 | 14.8 | 30.4 |  | 2.33 | 0 | 4.15 | 1.82 | 4.75 | 2.33 | 15.8 | 9.94 | 35.6 | 21.3 | 42.4 | 29.7 | 45 | 34.1 |  |
| COCCOc1cc2ncnc(Nc3cccc(-c4cn(-c5cccc(OC)c5)nn4)c3)c2cc1OCCOC [Compound 4e, [6,7-Bis-(2-methoxy-ethoxy)-quinazolin-4-yl]-{3-[1-(3-methoxy-phenyl)-1H-[1,2,3]triazol-4-yl]-phenyl}-amine] | > 50 |  |  |  |  | 0.801 | 0 | 4.97 | 2.08 | 7.13 | 3.04 | 14.1 | 5.45 | 15 | 13.5 | 16.5 | 15.1 | 18.2 | 15.9 |  |
| COCCOc1cc2ncnc(Nc3cccc(-c4cn(-c5ccccc5F)nn4)c3)c2cc1OCCOC [Compound 4f, [6,7-Bis-(2-methoxy-ethoxy)-quinazolin-4-yl]-{3-[1-(2-fluoro-phenyl)-1H-[1,2,3]triazol-4-yl]-phenyl}-amine] | 30.7 ± 1.83 | 83 to 86 | 32.4 | 28.7 | 30.7 ± 1.83 | 2.17 | 0 | 2.51 | 0.418 | 3.51 | 0.502 | 4.77 | 2.17 | 8.86 | 3.18 | 29.8 | 23.1 | 31.1 | 30.4 |  |
| C#Cc1cccc(Nc2ncnc3cc(OCCOC)c(OCCOC)cc23)c1 [Erlotinib, erlotinib] |  |  |  |  |  |  |  |  |  |  |  |  |  |  |  |  |  |  |  | IC50 (HeLa cells; Homo sapiens, HeLa cells, CCK8, 48 h, mean ± SD, n = 3, read-out: IC50 (μM) HeLa): 39.5 ± 3.34 µM |
